In the OPERA property sets (Mansouri et al. 2018):

**Q.** With `CCCCCC(=NO)C(C)=O` as the compound, how does the melting point read?
**A.** Its melting point is 59 °C.

**Q.** For `C=C1C/C(=C/C)C(=O)O[C@@H]2CCN3CC=C(COC(=O)[C@]1(C)O)[C@H]23`, which melting point is on record?
**A.** Its melting point is 218 °C.

**Q.** For `CC(C)(C)c1ccccc1N`, which boiling point is on record?
**A.** The boiling point was 234 °C.

**Q.** With `NC(=O)c1ccc(C(F)(F)F)cc1` as the compound, how does the melting point read?
**A.** Its melting point is 185 °C.

**Q.** Which boiling point does the source give for `CC1=CCCC(C)(C)C1CO` (configuration not stated) here?
**A.** The boiling point was 215 °C.

**Q.** For `O=C(OCC(=O)N1CCC[C@H]1C(=O)O)c1ccccc1`, which melting point is on record?
**A.** Its melting point is 116 °C.

**Q.** Which log10 Henry constant (atm·m³/mol) does the source give for `Cc1cccc2c1ccc1ccccc12` here?
**A.** The log10 Henry constant (atm·m³/mol) was -4.31.

**Q.** What about the log10 biodegradation half-life (days) of the same compound?
**A.** The log10 biodegradation half-life (days) was 1.36.

**Q.** And the log10 vapour pressure (mmHg)?
**A.** Its log10 vapour pressure (mmHg) is -4.82.

**Q.** What about the melting point of the same compound?
**A.** Its melting point is 123 °C.

**Q.** With `CCCCCCC[N+](=O)[O-]` as the compound, how does the boiling point read?
**A.** The boiling point was 194 °C.

**Q.** With `CC(=O)Nc1ccc(CC(=O)O)cc1` as the compound, how does the melting point read?
**A.** The melting point was 173 °C.

**Q.** With `COc1cc(C(=O)O)ccc1O` as the compound, how does the melting point read?
**A.** Its melting point is 212 °C.

**Q.** What about the ready biodegradability of the same compound?
**A.** Its ready biodegradability is “readily biodegradable”.

**Q.** Which results are given for `CC(C)(Br)C(=O)O`?
**A.** boiling point: 199 °C; melting point: 48.5 °C

**Q.** For `Nc1ccc(N)c2c1C(=O)c1ccccc1C2=O`, which log10 vapour pressure (mmHg) is on record?
**A.** The log10 vapour pressure (mmHg) was -9.7.

**Q.** And the melting point?
**A.** Its melting point is 268 °C.

**Q.** For `CNC(=O)C(C)(C(C)C)C(C)C`, which melting point is on record?
**A.** Its melting point is 60 °C.

**Q.** What does the source list for `CCCC(C)Cl` (configuration not stated)?
**A.** boiling point: 99 °C; log10 vapour pressure (mmHg): 1.69; melting point: -80 °C

**Q.** Which melting point does the source give for `CCCCCCCCCCCCC/C=C/[C@@H](O)[C@@H](N)CO` here?
**A.** Its melting point is 67 °C.

**Q.** For `Fc1ccc(-c2ccc(F)cc2)cc1`, which boiling point is on record?
**A.** The boiling point was 254 °C.

**Q.** What about the melting point of the same compound?
**A.** The melting point was 94.5 °C.

**Q.** With `Cc1ccc2[nH]c(C)c(C)c2c1` as the compound, how does the boiling point read?
**A.** The boiling point was 297 °C.

**Q.** And the melting point?
**A.** Its melting point is 122 °C.

**Q.** Which melting point does the source give for `C=C1C(=O)O[C@@H]2C=C(CO)CCC=C(C)C[C@H](OC(=O)C(=C)[C@@H](O)CO)[C@@H]12` here?
**A.** The melting point was 143 °C.

**Q.** Which boiling point does the source give for `CCc1cnccc1C` here?
**A.** Its boiling point is 198 °C.

**Q.** For `O=C(Nc1cccc2ccccc12)c1ccccc1C(=O)[O][Na]`, which log10 Koc (L/kg) is on record?
**A.** The log10 Koc (L/kg) was 3.34.

**Q.** For `C=C(Br)Br`, which boiling point is on record?
**A.** Its boiling point is 92 °C.

**Q.** Which ready biodegradability does the source give for `O=S(=O)(O)c1cc(S(=O)(=O)O)c2c(/N=N\c3ccc(S(=O)(=O)O)c4ccccc34)c(O)ccc2c1` here?
**A.** The ready biodegradability was “not readily biodegradable”.

**Q.** For `CC(C)C(C)C(C)C(C)C` (configuration not stated), which boiling point is on record?
**A.** Its boiling point is 156 °C.

**Q.** For `O=C1C=CC(=O)c2c(Cl)cccc21`, which melting point is on record?
**A.** Its melting point is 163 °C.

**Q.** With `CCCCCCCC(C)=O` as the compound, how does the boiling point read?
**A.** The boiling point was 195 °C.

**Q.** What about the log10 Henry constant (atm·m³/mol) of the same compound?
**A.** The log10 Henry constant (atm·m³/mol) was -3.44.

**Q.** And the log10 vapour pressure (mmHg)?
**A.** The log10 vapour pressure (mmHg) was -0.205.

**Q.** And the melting point?
**A.** The melting point was -7.5 °C.

**Q.** With `O=C(O)C(Cc1cc(I)c(O)c(I)c1)c1ccccc1` (configuration not stated) as the compound, how does the melting point read?
**A.** The melting point was 164 °C.

**Q.** With `CCc1ccccc1N` as the compound, how does the boiling point read?
**A.** The boiling point was 210 °C.

**Q.** And the log10 vapour pressure (mmHg)?
**A.** Its log10 vapour pressure (mmHg) is -0.77.

**Q.** What about the melting point of the same compound?
**A.** The melting point was -46.5 °C.

**Q.** With `O[C@@H](c1ccccc1)[C@@H](O)c1ccccc1` as the compound, how does the melting point read?
**A.** The melting point was 138 °C.

**Q.** For `O=C1C[C@@H]2OCC=C3CN4CC[C@]56c7ccccc7N1[C@H]5[C@H]2[C@H]3C[C@H]46`, which melting point is on record?
**A.** Its melting point is 287 °C.

**Q.** For `COc1ccc(C[C@H](N)C(=O)N[C@H]2[C@@H](O)[C@H](n3cnc4c(N(C)C)ncnc43)O[C@@H]2CO)cc1`, which melting point is on record?
**A.** The melting point was 176 °C.

**Q.** For `COc1ccc(C[C@H]2NC[C@H](O)[C@H]2OC(C)=O)cc1`, which melting point is on record?
**A.** The melting point was 140 °C.

**Q.** What does the source list for `C#CC1(O)CCCCC1`?
**A.** boiling point: 174 °C; melting point: 31.5 °C

**Q.** For `CC(=O)NC(=O)c1ccccc1O`, which melting point is on record?
**A.** The melting point was 148 °C.

**Q.** Which melting point does the source give for `O=[N+]([O-])c1cccc2cccnc12` here?
**A.** Its melting point is 90 °C.

**Q.** Which results are given for `Nc1c(Br)cccc1Br`?
**A.** boiling point: 263 °C; melting point: 87.5 °C

**Q.** For `FC(F)(F)C(F)(F)C(F)(F)C(F)(F)C(F)(F)C(F)(F)C(F)(F)C(F)(F)I`, which boiling point is on record?
**A.** The boiling point was 160 °C.

**Q.** What about the melting point of the same compound?
**A.** Its melting point is 20.8 °C.

**Q.** Which results are given for `SC1CCCCC1`?
**A.** boiling point: 159 °C; log10 vapour pressure (mmHg): 0.598

**Q.** What does the source list for `CCOC(=O)CCCCCC(=O)OCC`?
**A.** boiling point: 254 °C; log10 vapour pressure (mmHg): -2.51; melting point: -24 °C

**Q.** With `CCCSP(=O)(OCC)Oc1ccc(Br)cc1Cl` (configuration not stated) as the compound, how does the log10 Koc (L/kg) read?
**A.** Its log10 Koc (L/kg) is 3.03.

**Q.** And the log10 vapour pressure (mmHg)?
**A.** The log10 vapour pressure (mmHg) was -6.05.

**Q.** Which melting point does the source give for `CCCCCCCCCCCCCCCCCCOCC(O)CO` (configuration not stated) here?
**A.** Its melting point is 70.5 °C.

**Q.** Which melting point does the source give for `CCN(CC)CCn1cnc2c1c(=O)n(C)c(=O)n2C` here?
**A.** The melting point was 75 °C.

**Q.** For `CCN1CCCC1CNC(=O)c1cc(S(=O)(=O)CC)ccc1OC` (configuration not stated), which melting point is on record?
**A.** Its melting point is 182 °C.

**Q.** For `Brc1cc(Br)c(Br)c(Br)c1`, which boiling point is on record?
**A.** The boiling point was 329 °C.

**Q.** What about the melting point of the same compound?
**A.** The melting point was 99.5 °C.

**Q.** Which boiling point does the source give for `CC1OC1C` (configuration not stated) here?
**A.** The boiling point was 58.2 °C.

**Q.** And the melting point?
**A.** The melting point was -82.5 °C.

**Q.** For `Clc1ccc(Oc2cccc(Cl)c2Cl)cc1`, which log10 vapour pressure (mmHg) is on record?
**A.** The log10 vapour pressure (mmHg) was -3.94.

**Q.** What does the source list for `C/C=C/C=C/C(=O)OC`?
**A.** boiling point: 180 °C; melting point: 15 °C

**Q.** Which results are given for `CCCC=CC(C)C`?
**A.** boiling point: 112 °C; melting point: -108 °C

**Q.** With `CCOP(=S)(Oc1ccc(Cl)cc1Cl)c1ccccc1` (configuration not stated) as the compound, how does the ready biodegradability read?
**A.** The ready biodegradability was “not readily biodegradable”.

**Q.** What does the source list for `CCOC(=O)CCC(C)=O`?
**A.** boiling point: 206 °C; log10 vapour pressure (mmHg): -0.682

**Q.** Which log10 vapour pressure (mmHg) does the source give for `O=C1c2ccccc2C(=O)C1C(=O)C(c1ccccc1)c1ccc(Cl)cc1` (configuration not stated) here?
**A.** The log10 vapour pressure (mmHg) was -9.12.

**Q.** What about the melting point of the same compound?
**A.** The melting point was 140 °C.

**Q.** Which results are given for `O=C1c2ccccc2C(=O)c2cc(Cl)ccc21`?
**A.** melting point: 211 °C; ready biodegradability: not readily biodegradable

**Q.** What does the source list for `CCCCCCCc1ccccc1`?
**A.** boiling point: 240 °C; log10 vapour pressure (mmHg): -1.51; melting point: -48 °C

**Q.** Which boiling point does the source give for `CCC(C)(Cl)Cl` here?
**A.** Its boiling point is 104 °C.

**Q.** What about the melting point of the same compound?
**A.** The melting point was -74 °C.

**Q.** Which boiling point does the source give for `C=COC` here?
**A.** The boiling point was 5.5 °C.

**Q.** What about the log10 vapour pressure (mmHg) of the same compound?
**A.** Its log10 vapour pressure (mmHg) is 3.12.

**Q.** What about the melting point of the same compound?
**A.** The melting point was -122 °C.

**Q.** Which melting point does the source give for `Oc1ccccc1C=Nc1ccccc1` here?
**A.** Its melting point is 49.5 °C.

**Q.** For `O=C(O)CCC(=O)c1ccc2c(c1)-c1cccc3cccc-2c13`, which melting point is on record?
**A.** The melting point was 208 °C.

**Q.** Which results are given for `Clc1cc(Cl)c(Cl)nc1Cl`?
**A.** boiling point: 250 °C; melting point: 90.5 °C

**Q.** Which results are given for `CCCCBr`?
**A.** boiling point: 101 °C; log10 vapour pressure (mmHg): 1.62; melting point: -112 °C

**Q.** For `CN(C)C(=O)N(C(=O)c1ccccc1)c1ccc(Cl)c(Cl)c1`, which melting point is on record?
**A.** The melting point was 119 °C.

**Q.** With `O=S(=O)(F)Cc1ccccc1` as the compound, how does the melting point read?
**A.** Its melting point is 93 °C.
